Test system: human MDR1 P-gp
Experiment: Assessment of efflux in MDCK cells transfected with the human MDR1 gene (MDCK assay)
Format: in vitro ADME, canine
Details: dog; for Papp A→B at 2 h: MDCK-MDR1, pH 7.4, MDCK-MDR1 monolayers, apical-to-basal, pH 7.4, 37° C.; for efflux ratio at 2 h: MDCK-MDR1, pH 7.4, MDCK-MDR1, Papp (b-a) divided by Papp (a-b)
Description: Assessment of Efflux in Madin-Darby Canine Kidney Cells Transfected with the Human MDR1 Gene (MDCK Assay)
Apparent permeability coefficients (PE) of the compounds across the MDCK-MDR1 cell monolayers are measured (pH 7.4, 37° C.) in apical-to-basal (AB) and basal-to-apical (BA) transport direction. AB permeability (PEAB) represents drug absorption from the blood into the brain and BA permeability (PEBA) drug efflux from the brain back into the blood via both passive permeability as well as active transport mechanisms mediated by efflux and uptake transporters that are expressed on the MDCK-MDR1 cells, predominantly by the overexpressed human MDR1 P-gp. The compounds are assigned to permeability/absorption classes by comparison of the AB permeabilities with the AB permeabilities of reference compounds with known in vitro permeability and oral absorption in the human. Identical or similar permeabilities in both transport directions indicate passive permeation, vectorial permeability points to additional active transport mechanisms. Higher PEBA than PEAB indicates the involvement of active efflux mediated by MDR1 P-gp. Active transport is concentration-dependently saturable.
MDCK-MDR1 cells (1-2×10e5 cells/1 cm2 area) are seeded on filter inserts (Costar transwell polycarbonate or PET filters, 0.4 μm pore size) and cultured (DMEM) for 7 days. Subsequently, the MDR1 expression is boosted by culturing the cells with 5 mM sodium butyrate in full medium for 2 days. Compounds are dissolved in appropriate solvent (like DMSO, 1-20 mM stock solutions). […] The transport solution (TL) is applied to the apical or basolateral donor side for measuring A-B or B-A permeability (3 filter replicates), respectively. The receiver side contains the same buffer as the donor side. Samples are collected at the start and end of experiment from the donor and at various time intervals for up to 2 hours also from the receiver side for concentration measurement by HPLC-MS/MS or scintillation counting. Sampled receiver volumes are replaced with fresh receiver solution. Efflux ratio is calculated dividing the Papp (b-a) values by the Papp (a-b) values.

SMILES	Papp A→B at 2 h	efflux ratio at 2 h
Cc1nn2cc(C3CC3)cnc2c1C(=O)NC1(c2ncc(C(F)(F)F)cc2F)CCOCC1 [Example 17]	85 ×10⁻⁶ cm/s	0.6
O=C(NC1(c2ccc(C(F)(F)F)cc2F)COCC1O)c1cnn2cc(C3CC3)cnc12 (single isomer, unassigned) [Example 69]	25 ×10⁻⁶ cm/s	1.3
O=C(NC1(c2ccc(C(F)(F)F)cc2)CCOC1)c1cnn2cc(C3CC3)cnc12 (racemic) [Example 37]	86 ×10⁻⁶ cm/s	0.5
Cc1nn2cc(C3CC3)cnc2c1C(=O)NC1(c2ccc(C(F)(F)F)nc2)CCOCC1O (racemic) [Example 51]	11 ×10⁻⁶ cm/s	–
Cc1nn2cc(C3CC3)cnc2c1C(=O)NC1(c2ccc(C(F)(F)F)nc2)CCOCC1 [Example 25]	100 ×10⁻⁶ cm/s	0.8
Cc1nn2cc(C3CC3)cnc2c1C(=O)NC1(c2ccc(C(F)(F)F)cn2)CCOCC1 [Example 21]	94 ×10⁻⁶ cm/s	0.6

The remaining lines, values ahead:

Papp A→B at 2 h	efflux ratio at 2 h	SMILES
60 ×10⁻⁶ cm/s	–	Cc1cnc2c(C(=O)NC3(c4ccc(C(F)(F)F)cc4F)CCOCC3O)cnn2c1 (single isomer, unassigned) [Example 81a]
84 ×10⁻⁶ cm/s	0.6	Cc1cnc2c(C(=O)NC3(c4ccc(C(F)(F)F)cc4F)CCOCC3)cnn2c1 [Example 2]
34 ×10⁻⁶ cm/s	–	Cc1cnc2c(C(=O)NC3(c4ccc(C(F)(F)F)cc4F)CCOCC3(C)O)cnn2c1 (single isomer, unassigned) [Example 83a]
97 ×10⁻⁶ cm/s	0.7	O=C(NC1(c2ccc(C(F)(F)F)cc2F)CCOCC1)c1cnn2cc(F)cnc12 [Example 3]
59 ×10⁻⁶ cm/s	1	O=C(NC1(c2ccc(C(F)(F)F)cc2F)CCOCC1O)c1cnn2cc(C3CC3)cnc12 (single isomer, unassigned) [Example 82a]
60 ×10⁻⁶ cm/s	–	Cc1cnc2c(C(=O)NC3(c4ccc(C(F)(F)F)cc4F)CCOCC3O)cnn2c1 (racemic) [Example 46]
15 ×10⁻⁶ cm/s	–	CC1(O)COCCC1(NC(=O)c1cnn2cc(C3CC3)cnc12)c1ccc(C(F)(F)F)cc1F (racemic) [Example 53]

— US10479794B2, “Cyclic ether derivatives of pyrazolo[1,5-a]pyrimidine-3-carboxyamide” (Boehringer Ingelheim International GmbH, priority 2015, dated 2019)
